Assay results published in US20160355503A1, “NITROGEN HEXACYCLE COMPOUNDS AS INHIBITORS OF p97 COMPLEX” (Cleave Biosciences, Inc., priority 2015, published 2016).
pIC50: −log10 of the molar value.

What was measured:
K48-Ub = K48-Ub immunofluorescence assay in A549 cells; assay type: cell-based; settings: Homo sapiens, 6 hr incubation
Experimental: Image-analysis is used to generate quantitative data from these assays that can be fit to a four-parameter sigmoid curve to derive IC50 values. Substrates of the ubiquitin-proteasome system, such as p53, are monitored after tumor cell lines are incubated with compounds for several hours. Accumulation of these proteins indicates an inhibition of proteasome-mediated degradation. Accumulation of lysine-48 chain linkage of poly-ubiquitin is also monitored by immunofluorescence as an indicator of ubiquitin-proteasome system inhibition. Both LC3 and SQSTM1 are mediators of autophagy. The localization and amounts of these proteins are monitored by immunofluorescence and report on the activity and inhibition of autophagy in response to p97 inhibition.
(§1) The cellular assay provides information about the anti-neoplastic activity of the compounds of the invention. The compounds are tested against cultured cancer cells to determine whether or not the compounds of the invention are capable of intersecting with cancer cells to minimize or eliminate such cells. The assay involves establishing colonies of such cells and then treating them with the test compound under specified conditions and analysis regima to determine results.
(§2) Cell Plating: • Seed cells ˜16 hrs prior to compound treatment • Plate 25 μL of A549 cells in every well of 384-well plate using multidrop. • Two (2) black plates for IF at 2500 cells/well • Let plate sit at room temp for 10-15 minutes prior to putting in incubator to allow cells to stick in middle of plate. • One (1) white plate for viability at 500 cells/well.
(§3) Treat Cells: • Serial dilute compounds with a 10 point 2-fold serial dilution in DMSO to make 250× stock compound solution • Dilute compounds 1:125 in cell culture media to make a 2× solution • Add 25 μl of dilution compounds to cell plates in well duplicates • Put cells back in incubator (6 hr incubation for black plates, 72 hr incubation for white plates).
Fix/Stain Black Plates: • Incubate cells in black plates with compound at 37 deg C. for 6 hrs. • add 15 μL of 16% Paraformaldehyde (PFA) directly into media of each well, • incubate at room temp for 5 min, flick plate and wash in 50 μL of PBS • block in 50 μL of Blocking Buffer for 30 minutes (can go up to several hours) • Blocking buffer: 1×PBS, 1% BSA, 0.3% Triton-X100, Hoechst (1:10,000) • incubate in 25 μL of primary antibody in blocking buffer at 4 deg C. over night
Secondary Antibodies: • AlexaFluor488 Goat anti-Rabbit 1:2,000 (Life Tech A11008) • AlexaFluor555 Goat anti-Mouse 1:2,000 (Life Tech A21422) […]
Data Analysis: • Nuclear counts and cellular intensities of each markers are measured using Hoechst as a nuclear marker with an automated image analysis protocol using Matlab software (Math Works)

p97 = p97 (Homo sapiens, UniProt P55072); experiment: P97 ATPase biochemical assay (ADP Glo); settings: 20 nM p97, 20 μM ATP, 37° C. for 15 minutes
Experimental: The ATPase assay is performed according the following protocol: Purified enzyme (20 nM p97), substrate (20 μM ATP) and a dose titration of compounds are mixed in buffer (50 mM TRIS pH 7.5, 20 mM MgCl2, 0.02% TX-100, 1 mM DTT, 0.2% (v/v) glycerol) and incubated at 37° C. for 15 minutes. The reaction is terminated and the level of product generated is measured using the ADP Glo Assay Kit (Promega, Madison Wis.). Plotting product generated versus compound concentration and using a four-parameter fit model generates an IC50 value for each compounds.
The p97 assay is an initial screening assay used to determine inhibitory activity of the triazine compounds of the invention against the p97 complex. As discussed above, inhibition of activity of the p97 proteosome complex can enable apoptosis and cause elimination of neoplastic cells (cancer cells). The method follows that of Christianson in Nat. Cell Biol., (2011) 14:93.
Assay Buffer is a mixture of 50 mM TRIS pH 7.5, 20 mM MgCl2, 0.02% TX-100, 1 mM DTT and 0.2% (v/v) Glycerol. The well plate is Platetype: Corning 3674, 384w plate. The identification kit is an ADP glo kit (Promega): stop buffer, detection reagent.
Serial dilute compound in DMSO in a 1:3.33-fold 10 point serial dilution.
in each well of 384w plate add the following reagents:
0.5 μL compound serial diluted in DMSO (Final Conc. 10%)
2 μL ATP (Final Conc.=20 uM, diluted in assay buffer)
2.5 μL p97 (Final Conc.=20 nM, diluted in assay buffer)
Incubate at 37 deg C. for 15 min.
Add 5 μL of stop buffer, incubate at RT for 40 min.
Add 10 μL of detection reagent, incubate at RT for 30 min.
Read luminescence on Envision plate reader.
Upon obtaining the data from the luminescence reading, the data may be analyzed as follows:
Normalize luminescence data using no enzyme (full inhibition) and no compound (no inhibition) controls. Plot normalized luminescence data against log-transformed concentration values and fit to a sigmoidal curve to determine IC50 values (done in Collaborative Drug Discovery software).

A549 cells = experiment: Cultured cancer cell viability assay (cell titer glo, CTG); assay type: cell-based; settings: Homo sapiens, 72 hr incubation
Text: Anti-tumor effects are monitored in cultured cancer cells after several days of compound treatment. The cell titer glo assay (Promega) measures the amount of ATP present as a proxy for cellular viability. Cellular counting is done using high-content microscopy followed by image analysis. A hanging drop 3D-culture system (3D Biomatrix) is used followed by cell titer glo to measure growth in a tumor-like environment.
as §1, §2, §3
Viability Assay: • Thaw an aliquot of frozen cell titer glo (Promega G7572) at room temperature. • Add 45 mL of NaCl/PBS solution to 5 ml of cell titer glo (10×). • Remove white plates from incubator, leave at room temp for 30 minutes. • Add 25 μl of diluted cell titer glo to each well. • Shake plate for >1 minute. • Incubate plate for >5 minutes to stabilize luminescence. • Luminescence is stable for up to 3 hours. • Read luminescence on plate reader

p97, sequence (P55072 whole entry): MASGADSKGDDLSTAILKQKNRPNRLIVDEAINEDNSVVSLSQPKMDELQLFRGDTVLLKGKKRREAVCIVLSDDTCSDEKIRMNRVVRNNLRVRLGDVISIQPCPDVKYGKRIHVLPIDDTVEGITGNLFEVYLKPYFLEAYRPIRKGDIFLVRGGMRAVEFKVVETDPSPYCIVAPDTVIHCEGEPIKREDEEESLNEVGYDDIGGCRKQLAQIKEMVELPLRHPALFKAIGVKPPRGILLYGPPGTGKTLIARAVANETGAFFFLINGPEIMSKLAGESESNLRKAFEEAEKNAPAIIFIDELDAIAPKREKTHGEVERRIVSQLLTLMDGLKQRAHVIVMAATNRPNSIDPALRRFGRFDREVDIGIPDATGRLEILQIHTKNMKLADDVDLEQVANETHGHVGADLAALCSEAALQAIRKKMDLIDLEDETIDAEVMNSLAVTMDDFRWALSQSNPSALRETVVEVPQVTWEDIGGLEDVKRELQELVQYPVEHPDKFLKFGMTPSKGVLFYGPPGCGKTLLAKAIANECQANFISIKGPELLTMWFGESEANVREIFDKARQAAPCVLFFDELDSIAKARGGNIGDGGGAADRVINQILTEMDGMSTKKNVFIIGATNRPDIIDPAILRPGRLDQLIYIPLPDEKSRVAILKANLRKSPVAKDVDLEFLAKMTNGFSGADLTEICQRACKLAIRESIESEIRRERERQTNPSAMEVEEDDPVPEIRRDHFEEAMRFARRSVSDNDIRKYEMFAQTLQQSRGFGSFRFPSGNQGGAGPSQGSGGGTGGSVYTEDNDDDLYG

Row | pIC50 (K48-Ub) | pIC50 (p97) | pIC50 (A549 cells) | Peff A B, Range (Caco-2 cells; pH 7.4 Caco-2, A to B) | Peff B A, Range (Caco-2 cells; pH 7.4 Caco-2, B to A) | Compound
1 | > 5.52 | > 7.00 | > 5.00 | – | – | Cc1nc(NCc2ccccc2)nc(-n2c(C)cc3c(C(N)=O)cccc32)n1 [1-(4-(benzylamino)-6-methyl-1,3,5-triazin-2-yl)-2-methyl-1H-indole-4-carboxamide]
2 | > 5.52 | > 6.00 | > 5.00 | – | – | Cc1nnc(-n2c(C)cc3c(C(N)=O)cccc32)nc1NCc1cccc(F)c1 [1-(5-((3-fluorobenzyl)amino)-6-methyl-1,2,4-triazin-3-yl)-2-methyl-1H-indole-4-carboxamide]
3 | > 6.00 | > 7.52 | > 6.00 | – | – | CCc1nnc(-n2c(C)cc3c(C(N)=O)cccc32)nc1NCc1ccccc1 [1-(5-(benzylamino)-6-ethyl-1,2,4-triazin-3-yl)-2-methyl-1H-indole-4-carboxamide]
4 | – | > 5.00 | – | – | – | COc1nc2c(C#N)cccc2n1-c1nnc(C)c(NCc2ccccc2)n1 [1-(5-(benzylamino)-6-methyl-1,2,4-triazin-3-yl)-2-methoxy-1H-benzo[d]imidazole-4-carbonitrile]
5 | > 5.52 | > 7.52 | > 5.52 | – | – | Cc1nnc(-n2c(C)cc3c(C(N)=O)cccc32)nc1NCc1ccccc1 [1-(5-(benzylamino)-6-methyl-1,2,4-triazin-3-yl)-2-methyl-1H-indole-4-carboxamide]
6 | – | > 5.00 | – | – | – | Cc1nnc(-n2c(CN)cc3c(C(N)=O)cccc32)nc1NCc1ccccc1 [2-(aminomethyl)-1-(5-(benzylamino)-6-methyl-1,2,4-triazin-3-yl)-1H-indole-4-carboxamide]
7 | – | – | – | 18.50-36.80 ×E−6 cm/sec | 16.30-31.40 ×E−6 cm/sec | CC(C)NCC(O)COc1cccc2ccccc12 (stereo not shown) [Propranolol]
